From PMC7736581, “Activation of the IRE1 RNase through remodeling of the kinase front pocket by ATP-competitive ligands” (Nature Communications, 2020)

Legend:
Assay in all cases: biochemical
Design in all cases: Invitrogen kinase panel: Z'Lyte activity (ATP at Km) or LanthaScreen competitive ATP-site binding, percent inhibition
[1] = molecular target: T1, PKC_zeta (Homo sapiens, UniProt Q05513)
T1 construct: gene PRKCZ
T1 sequence (Q05513 1-592): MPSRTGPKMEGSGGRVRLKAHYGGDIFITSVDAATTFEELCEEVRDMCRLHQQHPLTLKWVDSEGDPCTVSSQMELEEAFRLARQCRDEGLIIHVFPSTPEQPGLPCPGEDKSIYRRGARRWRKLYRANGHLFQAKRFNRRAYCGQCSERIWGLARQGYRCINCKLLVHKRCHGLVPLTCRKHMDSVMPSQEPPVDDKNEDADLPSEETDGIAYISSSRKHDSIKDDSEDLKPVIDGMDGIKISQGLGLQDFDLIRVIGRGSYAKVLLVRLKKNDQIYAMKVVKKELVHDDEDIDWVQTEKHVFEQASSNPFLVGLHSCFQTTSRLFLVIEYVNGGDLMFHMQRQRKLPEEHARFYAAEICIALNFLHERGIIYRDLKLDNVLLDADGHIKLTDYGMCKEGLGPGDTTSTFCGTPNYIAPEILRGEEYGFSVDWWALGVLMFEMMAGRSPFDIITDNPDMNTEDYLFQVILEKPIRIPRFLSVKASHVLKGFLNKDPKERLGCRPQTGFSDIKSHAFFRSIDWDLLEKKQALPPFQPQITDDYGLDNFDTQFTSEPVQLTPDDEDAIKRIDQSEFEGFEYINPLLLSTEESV

[2] = molecular target: T2, CDK5/p25 (Homo sapiens, UniProt Q00535)
T2 construct: p25

[3] = molecular target: T3, Flt3 (Homo sapiens, UniProt P36888)
T3 sequence (P36888 1-993): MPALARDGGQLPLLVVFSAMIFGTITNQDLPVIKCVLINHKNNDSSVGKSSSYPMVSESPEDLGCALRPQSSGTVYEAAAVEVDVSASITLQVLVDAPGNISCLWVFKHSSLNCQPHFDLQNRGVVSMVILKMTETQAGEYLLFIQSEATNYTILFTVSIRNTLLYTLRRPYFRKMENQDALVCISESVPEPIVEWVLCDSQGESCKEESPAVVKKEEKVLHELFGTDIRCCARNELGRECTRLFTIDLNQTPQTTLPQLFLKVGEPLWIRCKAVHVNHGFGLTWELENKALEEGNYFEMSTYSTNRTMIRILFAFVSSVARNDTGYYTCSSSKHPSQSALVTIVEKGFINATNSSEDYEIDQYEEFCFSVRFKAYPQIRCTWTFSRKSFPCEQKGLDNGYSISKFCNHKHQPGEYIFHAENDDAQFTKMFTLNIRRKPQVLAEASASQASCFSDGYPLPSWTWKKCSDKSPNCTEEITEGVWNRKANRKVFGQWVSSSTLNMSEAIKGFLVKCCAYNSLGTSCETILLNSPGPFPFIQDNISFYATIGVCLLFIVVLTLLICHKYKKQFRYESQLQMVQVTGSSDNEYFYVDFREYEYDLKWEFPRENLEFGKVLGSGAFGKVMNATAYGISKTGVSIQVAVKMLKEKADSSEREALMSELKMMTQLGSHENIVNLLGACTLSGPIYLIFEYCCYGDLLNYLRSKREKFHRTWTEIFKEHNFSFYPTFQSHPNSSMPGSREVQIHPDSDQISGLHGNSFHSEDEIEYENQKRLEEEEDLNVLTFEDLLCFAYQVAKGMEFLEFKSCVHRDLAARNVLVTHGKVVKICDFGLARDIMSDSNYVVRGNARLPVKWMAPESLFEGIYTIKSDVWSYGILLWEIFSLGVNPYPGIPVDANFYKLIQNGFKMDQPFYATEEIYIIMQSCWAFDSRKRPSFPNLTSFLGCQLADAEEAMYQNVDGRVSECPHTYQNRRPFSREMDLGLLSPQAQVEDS

[4] = molecular target: T4, Abl (Homo sapiens, UniProt P00519)
T4 construct: gene ABL1

[5] = molecular target: T5, PhK_gamma1 (Homo sapiens, UniProt Q16816)
T5 construct: gene PHKG1

[6] = molecular target: T6, CHK2 (Homo sapiens, UniProt O96017)
T6 construct: gene CHEK2
T6 sequence (O96017 whole entry): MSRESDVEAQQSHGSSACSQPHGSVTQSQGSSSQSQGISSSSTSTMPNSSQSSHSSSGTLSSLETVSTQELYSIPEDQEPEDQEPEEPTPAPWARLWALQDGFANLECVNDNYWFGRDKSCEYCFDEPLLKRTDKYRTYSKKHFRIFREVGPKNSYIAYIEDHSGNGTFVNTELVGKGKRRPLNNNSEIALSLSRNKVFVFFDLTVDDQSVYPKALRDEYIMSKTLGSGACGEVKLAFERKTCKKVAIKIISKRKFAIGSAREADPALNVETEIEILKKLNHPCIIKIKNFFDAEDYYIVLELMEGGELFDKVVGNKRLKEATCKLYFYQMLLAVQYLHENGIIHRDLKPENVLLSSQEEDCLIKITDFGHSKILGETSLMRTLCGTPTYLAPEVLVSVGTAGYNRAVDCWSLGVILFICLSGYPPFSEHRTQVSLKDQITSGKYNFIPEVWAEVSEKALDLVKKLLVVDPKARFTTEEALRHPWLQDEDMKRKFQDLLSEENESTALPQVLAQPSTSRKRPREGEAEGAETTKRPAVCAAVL

T2 sequence (Q00535 whole entry): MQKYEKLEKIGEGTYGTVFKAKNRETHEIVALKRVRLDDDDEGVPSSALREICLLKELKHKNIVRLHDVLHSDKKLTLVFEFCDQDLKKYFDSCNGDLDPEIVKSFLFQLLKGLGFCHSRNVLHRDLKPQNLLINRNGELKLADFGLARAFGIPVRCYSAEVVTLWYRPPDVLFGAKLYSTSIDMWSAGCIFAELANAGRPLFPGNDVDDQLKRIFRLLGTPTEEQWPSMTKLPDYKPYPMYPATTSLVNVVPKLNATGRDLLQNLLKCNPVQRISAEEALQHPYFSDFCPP
T2 sequence (Q15078 whole entry partner): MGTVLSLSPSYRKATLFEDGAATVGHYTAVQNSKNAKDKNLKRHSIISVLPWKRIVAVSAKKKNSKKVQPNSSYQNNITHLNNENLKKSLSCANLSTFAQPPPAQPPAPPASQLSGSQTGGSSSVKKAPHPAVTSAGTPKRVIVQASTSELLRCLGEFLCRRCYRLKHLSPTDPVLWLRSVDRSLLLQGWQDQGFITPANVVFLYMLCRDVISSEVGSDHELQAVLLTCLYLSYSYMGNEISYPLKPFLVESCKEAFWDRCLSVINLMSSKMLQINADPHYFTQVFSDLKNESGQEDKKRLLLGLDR
T4 sequence (P00519 whole entry): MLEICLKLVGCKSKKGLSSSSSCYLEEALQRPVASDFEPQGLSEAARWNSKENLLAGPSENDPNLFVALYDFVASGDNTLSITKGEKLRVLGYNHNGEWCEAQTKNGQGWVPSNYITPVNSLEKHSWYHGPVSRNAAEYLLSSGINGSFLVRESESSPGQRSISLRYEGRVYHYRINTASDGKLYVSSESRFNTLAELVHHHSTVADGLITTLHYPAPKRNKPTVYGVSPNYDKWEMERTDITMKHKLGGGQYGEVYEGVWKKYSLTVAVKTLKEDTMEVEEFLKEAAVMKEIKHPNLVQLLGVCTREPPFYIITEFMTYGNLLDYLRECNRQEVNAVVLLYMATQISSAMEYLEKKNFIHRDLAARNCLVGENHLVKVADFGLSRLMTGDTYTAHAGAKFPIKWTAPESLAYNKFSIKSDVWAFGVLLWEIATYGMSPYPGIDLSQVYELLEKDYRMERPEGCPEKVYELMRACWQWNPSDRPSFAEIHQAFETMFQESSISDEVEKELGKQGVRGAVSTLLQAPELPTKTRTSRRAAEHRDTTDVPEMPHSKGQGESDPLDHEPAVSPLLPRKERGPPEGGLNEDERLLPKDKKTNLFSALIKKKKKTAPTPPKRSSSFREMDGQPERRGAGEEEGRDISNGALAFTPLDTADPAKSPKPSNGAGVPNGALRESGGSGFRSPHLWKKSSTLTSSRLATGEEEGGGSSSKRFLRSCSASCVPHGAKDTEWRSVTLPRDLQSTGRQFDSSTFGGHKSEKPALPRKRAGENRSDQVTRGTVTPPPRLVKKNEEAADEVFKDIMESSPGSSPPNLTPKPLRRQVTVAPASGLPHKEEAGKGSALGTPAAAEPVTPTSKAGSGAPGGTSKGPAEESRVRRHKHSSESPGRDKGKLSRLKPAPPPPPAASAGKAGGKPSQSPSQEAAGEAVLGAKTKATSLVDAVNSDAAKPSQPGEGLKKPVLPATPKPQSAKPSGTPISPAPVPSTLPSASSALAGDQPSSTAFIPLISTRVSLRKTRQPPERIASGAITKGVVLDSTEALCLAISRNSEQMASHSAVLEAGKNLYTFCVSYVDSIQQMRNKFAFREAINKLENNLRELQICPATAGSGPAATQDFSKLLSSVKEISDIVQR
T5 sequence (Q16816 whole entry): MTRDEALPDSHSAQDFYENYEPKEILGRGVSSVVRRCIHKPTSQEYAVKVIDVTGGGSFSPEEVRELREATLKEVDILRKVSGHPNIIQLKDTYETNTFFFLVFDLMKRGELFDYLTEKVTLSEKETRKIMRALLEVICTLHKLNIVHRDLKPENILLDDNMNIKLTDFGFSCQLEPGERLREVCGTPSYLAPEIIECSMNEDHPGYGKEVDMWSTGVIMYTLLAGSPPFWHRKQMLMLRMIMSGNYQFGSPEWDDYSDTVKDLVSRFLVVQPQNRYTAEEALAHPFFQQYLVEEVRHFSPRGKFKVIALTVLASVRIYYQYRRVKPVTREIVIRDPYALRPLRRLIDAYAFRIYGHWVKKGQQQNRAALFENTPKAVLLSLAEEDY

Structure (SMILES)	inhibition at 1 µM [1]	inhibition at 1 µM [2]	inhibition at 1 µM [3]	inhibition at 1 µM [4]	inhibition at 1 µM [5]	inhibition at 1 µM [6]
CCOC(=O)Nc1cccc2c(Oc3ncccc3-c3ccnc(N[C@H]4CCCNC4)n3)c(C)ccc12 [G-1749]	12%	3.5%	8%	-7.5%	2%	12%
CC#CC(=O)Nc1cccc2c(Oc3ncccc3-c3ccnc(N[C@H]4CCCNC4)n3)c(C)ccc12 [G-7658]	18.5%	4%	16.5%	-1.5%	1%	8%
O=c1cc(-c2n[nH]c3ncc(-c4c(F)cccc4F)cc23)nc(N2CCC(O)CC2)[nH]1 [G-9807]	34.2%	100%	98.2%	94.4%	92.2%	95%
